Data as given in the supplement of paper PMC5579334.
± gives the standard deviation of the averaged measurements.

Key:
STS26T [1] = assay: drug sensitivity score (DSS, CellTiter-Glo viability, 72 h) (DSS (dimensionless)); higher = more sensitive; extreme values may be limits of the assay
Procedure, shortened: (§1)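 Viability was scored by CellTiter-Glo ATP luminescence, scaled from vehicle to positive-control wells, with duplicates averaged where present. The cells, MPNST lines and primary human Schwann cells at 750–1000 per well, sat 72 h at 37 °C, 5% CO2, in 384-well plates preprinted with each compound at five concentrations in 10-fold steps. Four-parameter logistic fits were run on the data. These fits give drug sensitivity score and relative IC50 censored at the top concentration, and percent inhibition is reported at the top concentration.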

ST8814 [2] = assay: as above
Procedure, shortened: as §1

S462 [3] = assay: as above
Procedure, shortened: as §1

HS-PSS [4] = assay: as above
Procedure, shortened: as §1

[5] = test system: HSC1 (primary human Schwann cells); assay: as above
Procedure, shortened: as §1

S1507-2 [6] = assay: as above
Procedure, shortened: as §1

YST-1 [7] = assay: as above
Procedure, shortened: as §1

[8] = test system: HSC2 (primary human Schwann cells); assay: as above
Procedure, shortened: as §1

HS-Sch-2 [9] = assay: as above
Procedure, shortened: as §1

STS26T [10] = assay: % inhibition of CellTiter-Glo viability at highest tested concentration (72 h), relative to DMSO and benzethonium chloride controls; higher = more inhibition
Procedure, shortened: as §1

ST8814 [11] = assay: as above
Procedure, shortened: as §1

S462 [12] = assay: as above
Procedure, shortened: as §1

HS-PSS [13] = assay: as above
Procedure, shortened: as §1

[14] = test system: HSC1 (primary human Schwann cells); assay: as above
Procedure, shortened: as §1

S1507-2 [15] = assay: as above
Procedure, shortened: as §1

YST-1 [16] = assay: as above
Procedure, shortened: as §1

[17] = test system: HSC2 (primary human Schwann cells); assay: as above
Procedure, shortened: as §1

HS-Sch-2 [18] = assay: as above
Procedure, shortened: as §1

STS26T [19] = assay: drug sensitivity score (DSS, CellTox-Green cytotoxicity, 72 h) (DSS (dimensionless)); higher = more cytotoxic; extreme values may be limits of the assay
Procedure, shortened: (§2)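 MPNST cell lines and primary human Schwann cells were incubated 72 h at 37 °C in 384-well plates holding five 10-fold compound dilutions. CellTox-Green was added before seeding at a final 1:1000 dilution and reported fluorescence from DNA released by disrupted cells. Signals were scaled to vehicle and positive-control wells, and cultures failing plate quality control were dropped. Drug sensitivity score and relative IC50 come from four-parameter logistic fits, with IC50 censored at the top concentration.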

ST8814 [20] = assay: as above
Procedure, shortened: as §2

HS-PSS [21] = assay: as above
Procedure, shortened: as §2

[22] = test system: HSC1 (primary human Schwann cells); assay: as above
Procedure, shortened: as §2

S1507-2 [23] = assay: as above
Procedure, shortened: as §2

[24] = test system: HSC2 (primary human Schwann cells); assay: as above
Procedure, shortened: as §2

Row | SMILES | drug sensitivity score (STS26T [1]) | drug sensitivity score (ST8814 [2]) | drug sensitivity score (S462 [3]) | drug sensitivity score (HS-PSS [4]) | drug sensitivity score [5] | drug sensitivity score (S1507-2 [6]) | drug sensitivity score (YST-1 [7]) | drug sensitivity score [8] | drug sensitivity score (HS-Sch-2 [9]) | % inhibition (STS26T [10]) | % inhibition (ST8814 [11]) | % inhibition (S462 [12]) | % inhibition (HS-PSS [13]) | % inhibition [14] | % inhibition (S1507-2 [15]) | % inhibition (YST-1 [16]) | % inhibition [17] | % inhibition (HS-Sch-2 [18]) | drug sensitivity score (STS26T [19]) | drug sensitivity score (ST8814 [20]) | drug sensitivity score (HS-PSS [21]) | drug sensitivity score [22] | drug sensitivity score (S1507-2 [23]) | drug sensitivity score [24]
1 | CC1(C)NC(=O)N(c2ccc([N+](=O)[O-])c(C(F)(F)F)c2)C1=O [Nilutamide] (max concentration tested 10000 nM) | 0 | 0 | 0 | 0 | 0.162 | 0 | 0 | 0 | 0.51 | 7.4% | -1.67% | 6.29 ± 2.4% | 8.31% | 9.41% | 7.48 ± 3.5% | -2.31% | 9.17% | 18.2% | 0 | 0 | 0 | 0 | 0 | 0
2 | CCS(=O)(=O)c1cccc(-c2cc(C(=O)NC3CCN(C)CC3)c(C)c3[nH]c4ncc(C)cc4c23)c1 [TAK-901] (max concentration tested 1000 nM) | 7.82 | 3.64 | 8.66 ± 0.25 | 5.46 | 7.19 | 1.99 ± 0.39 | 10.1 | 8.24 | 3.76 | 69.6% | 57.6% | 80.6 ± 2.5% | 57.5% | 63.8% | 23.5 ± 3.2% | 76.6% | 65.6% | 70.3% | 6.2 | 5.81 | 0 | 0.0275 | 0 | 11
3 | Nc1ncnc2c1nc(Cl)n2[C@@H]1O[C@H](CO)[C@@H](O)[C@H]1O [8-chloro-adenosine] (max concentration tested 50000 nM) | 12.3 | 9.48 | 14.21 ± 0.085 | 5.54 | 9.38 | 12.4 ± 2.1 | 12.9 | 9.83 | 11.1 | 86.8% | 54.5% | 82.1 ± 4.6% | 55.6% | 73.8% | 74 ± 0.56% | 88.6% | 73.7% | 80% | 6.31 | 0.449 | 0 | 0 | 1.46 ± 1.7 | 0
4 | FC(F)c1nc2ccccc2n1-c1nc(N2CCOCC2)nc(N2CCOCC2)n1 [ZSTK474] (max concentration tested 10000 nM) | 14.6 | 8.94 | 8 ± 0.68 | 3.54 | 8.75 | 13.5 ± 2.1 | 15.1 | 9.9 | 4.18 | 80% | 69.7% | 59.4 ± 5% | 30.6% | 75.7% | 76.7 ± 9% | 81.3% | 77.2% | 38.2% | 0 | 0 | 0 | 0 | 0.69 ± 0.011 | 0.497
5 | C=CCN(/C=C1/C(=O)O[C@H](COC)[C@@]2(C)C1=C(O)C(=O)C1=C2[C@H](OC(C)=O)C[C@]2(C)C(=O)CC[C@@H]12)CC=C [Sonolisib] (max concentration tested 10000 nM) | 0.263 | 0.745 | 0.831 ± 1.2 | 0 | 0 | 0.798 ± 0.34 | 0 | 0.415 | 0 | 11.4% | 7.84% | 17.1 ± 5.5% | 3.89% | 6.67% | 15.9 ± 0.9% | 7.12% | 13.1% | -0.71% | 0 | 0 | 0 | 0 | 0 | 0
6 | Cc1cc(Nc2cc(CN3CCOCC3)c3nc(C)c(Cc4ccc(Cl)cc4F)n3n2)n[nH]1 [Gandotinib] (max concentration tested 10000 nM) | 8.72 | 8.52 | 11.7 ± 2.7 | 7.29 | 10.2 | 10.4 ± 1.9 | 7.71 | 10.9 | 9.06 | 68.9% | 97.2% | 96.5 ± 2.7% | 68% | 103% | 101.6 ± 0.37% | 70.5% | 103% | 96.6% | 3.96 | 5.3 | 0.55 | 8.02 | 7.03 ± 1.3 | 7.38
7 | COc1cc(Nc2ncc(F)c(Nc3ccc4c(n3)NC(=O)C(C)(C)O4)n2)cc(OC)c1OC [Tamatinib] (max concentration tested 10000 nM) | 0.0251 | 0.365 | 0 | 0 | 5.11 | 0 | 0 | 3.08 | 0.4 | 10.2% | 11.9% | 4.27 ± 6.2% | 9.72% | 37.9% | -0.148 ± 3.2% | -0.14% | 36.1% | 13.4% | 0.558 | 0.113 | 0 | 0 | 0.0129 ± 0.018 | 0.0662
